# Measurements taken from US8440674B2, “Substituted pyrimidine compounds as RAF inhibitors and methods of use” (Amgen Inc., priority 2005, dated 2013).
# Like-named read-outs stand apart in the source and are kept apart here.
# Experiments:
# [1] = system: A375 cells, a human melanoma cell line having the V600E mutant Braf; assay: B-Raf cell-based assay (ratio of phospho-ERK1/2 to total ERK1/2); settings: A-375, 1 h, P-ERK/total ERK, 60 minute incubation, read-out: IC50 for the inhibition of B-raf as measured by the cell-based assay
# Experimental: A cell-based assay was optimized to assay the ability of compounds to inhibit Braf activity in a whole cell context. […] The cell-based assay quantifies the ratio of phospho-ERK1/2 to total ERK1/2 and can thereby assay the cellular inhibition of Braf kinase activity.
# A375 cells are plated into 96 well plates and grown to confluence. The cells are then changed into starve media (DMEM/0.1% BSA) for 60 minutes. Compounds in DMSO dose curves are then diluted in starve media and added to cells. […] After a 60 minute incubation the cells are fixed for 20 minutes at room temperature in 4% formaldehyde with 0.1%Triton X-100, protease and phosphatase inhibitors in PBS. The cells are washed four times in PBS then blocked for 60 minutes using a one to one mix of Odyssey blocking buffer (Li-Cor Biosciences, Inc) and PBS. Primary antibodies (rabbit anti-phospho p42/p44 MAPK (P-ERK1/2) from Cell Signaling Technology and mouse anti-ERK2 from Santa Cruz Biotechnology) are diluted in blocking buffer, added to the cells and incubated overnight at 4° C. The cells are then washed four times in PBS/0.1% Tween-20. Secondary antibodies (anti-mouse IRDye 800CW from Rockland, Inc and anti-rabbit AlexaFlour680 from Molecular Probes) are diluted in blocking buffer/0.5% Tween and incubated on cells for 60 minutes. After 4 washes in PBS/0.1% Tween-20 the microplate is scanned on an Odyssey Infrared Imager (Li-Cor Bioscience) which can read the signal given by the two secondary antibodies on their respective channels. The ratio of P-ERK/total ERK is determined and IC50s generated using Excel-XLfit software.
# recombinant HuBraf V600E = recombinant HuBraf V600E (Homo sapiens, UniProt P15056, V600E); assay: B-raf Homogenous Time Resolved Fluorescent (HTRF) kinase assay; assay type: biochemical; settings: substrate MEK1, 10 uM ATP; threshold lists; read-out: IC50 for the inhibition of B-raf as measured by the HTRF assay
# Sequence of recombinant HuBraf V600E (P15056 whole entry V600E): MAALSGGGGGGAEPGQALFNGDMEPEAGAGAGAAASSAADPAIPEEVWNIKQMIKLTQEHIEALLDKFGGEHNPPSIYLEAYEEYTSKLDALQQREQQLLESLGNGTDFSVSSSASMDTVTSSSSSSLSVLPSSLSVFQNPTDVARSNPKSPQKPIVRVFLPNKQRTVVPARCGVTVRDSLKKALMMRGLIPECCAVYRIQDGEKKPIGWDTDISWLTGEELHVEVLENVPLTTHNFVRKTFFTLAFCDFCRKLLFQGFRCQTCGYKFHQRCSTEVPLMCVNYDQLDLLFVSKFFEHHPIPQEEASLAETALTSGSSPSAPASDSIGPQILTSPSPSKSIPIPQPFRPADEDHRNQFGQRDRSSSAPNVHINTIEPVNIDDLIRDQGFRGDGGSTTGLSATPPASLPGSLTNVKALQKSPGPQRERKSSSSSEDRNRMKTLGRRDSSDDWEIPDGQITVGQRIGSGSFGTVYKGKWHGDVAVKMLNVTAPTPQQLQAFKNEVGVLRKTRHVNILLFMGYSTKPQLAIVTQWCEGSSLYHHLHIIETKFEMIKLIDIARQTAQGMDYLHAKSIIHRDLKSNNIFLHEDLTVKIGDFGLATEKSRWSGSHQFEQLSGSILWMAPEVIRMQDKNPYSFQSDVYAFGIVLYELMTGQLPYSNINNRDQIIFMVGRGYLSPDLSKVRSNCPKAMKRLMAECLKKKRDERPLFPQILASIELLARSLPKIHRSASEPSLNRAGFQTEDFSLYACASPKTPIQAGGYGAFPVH
# Experimental: A Homogeneous Time Resolved Fluorescence (HTRF) kinase assay was established to assay the ability of compounds to inhibit human mutant Braf kinase activity on the substrate MEK1. […] The final concentration of the kinase reaction buffer is 50 mM Tris-HCL pH 7.5, 10 mM MgCl2, 0.5% glucose, 0.5 mM DTT, 0.01% BSA.
# The detection reaction proceeds for one hour and is read on a RubyStar (BMG Labtech) counter. IC50s for the test compounds are generated using Excel-XLfit software.
IC50 ([1]; threshold list) [nM],IC50 (recombinant HuBraf V600E) [nM],IC50 ([1]; threshold lists) [nM],Compound
≤ 500,≤ 250,,"CNc1ncc2cc(-c3c(C)ccc4c(Nc5cccc(OC(F)(F)F)c5)ncnc34)ccc2n1 [Example 50, N^2,7′-dimethyl-N^4′-(3-((trifluoromethyl)oxy)phenyl)-6,8′-biquinazoline-2,4′-diamine]"
≤ 500,≤ 250,,"CNc1ncc2cc(-c3c(C)ccc4c(Nc5cccc(C(F)(F)F)c5)ncnc34)ccc2n1 [Example 51, N^2,7′-dimethyl-N^4′-(3-(trifluoromethyl)phenyl)-6,8′-biquinazoline-2,4′-diamine]"
≤ 500,≤ 250,,"CNc1ncc2cc(-c3c(C)ccc4c(Nc5ccc(OC)c(C(F)(F)F)c5)ncnc34)ccc2n1 [Example 52, N^2,7′-dimethyl-N^4′-(4-(methyloxy)-3-(trifluoromethyl)phenyl)-6,8′-biquinazoline-2,4′-diamine]"
≤ 500,≤ 250,,"CNc1ncc2cc(-c3c(C)ccc4c(Nc5cc(C(C)(C)C)nn5C)ncnc34)ccc2n1 [Example 53, N^4′-(3-(1,1-dimethylethyl)-1-methyl-1H-pyrazol-5-yl)-N^2,7′-dimethyl-6,8′-biquinazoline-2,4′-diamine]"
≤ 500,≤ 250,,"CNc1ncc2cc(-c3c(C)ccc4c(Nc5ccc6c(c5)N(C(C)=O)CC6(C)C)ncnc34)ccc2n1 [Example 54, N^4′-(1-acetyl-3,3-dimethyl-2,3-dihydro-1H-indol-6-yl)-N^2,7′-dimethyl-6,8′-biquinazoline-2,4′-diamine]"
≤ 500,≤ 250,,"CNc1ncc2cc(-c3c(C)ccc4c(Nc5ccc(Cl)c(C(F)(F)F)c5)ncnc34)ccc2n1 [Example 55, N^4′-(4-chloro-3-(trifluoromethyl)phenyl)-N^2,7′-dimethyl-6,8′-biquinazoline-2,4′-diamine]"
≤ 500,≤ 250,,"CNc1ncc2cc(-c3c(C)ccc4c(Nc5cncc(C(F)(F)F)c5)ncnc34)ccc2n1 [Example 56, N^2,7′-dimethyl-N^4′-(5-(trifluoromethyl)-3-pyridinyl)-6,8′-biquinazoline-2,4′-diamine]"
≤ 500,≤ 250,≤ 1000,"CNc1ncc2cc(-c3c(C)ccc4c(NC5CCC(C(C)(C)C)CC5)ncnc34)ccc2n1 (centres unmarked) [Example 57, N^4′-(4-(1,1-dimethylethyl)cyclohexyl)-N^2,7′-dimethyl-6,8′-biquinazoline-2,4′-diamine]"
≤ 500,≤ 250,≤ 1000,"CNc1ncc2cc(-c3c(C)ccc4c(Nc5ccc6sc(C)nc6c5)ncnc34)ccc2n1 [Example 58, N^2,7′-dimethyl-N^4′-(2-methyl-1,3-benzothiazol-5-yl)-6,8′-biquinazoline-2,4′-diamine]"
≤ 500,≤ 250,,"CNc1ncc2cc(-c3c(C)ccc4c(Nc5cccc(C(F)(F)F)c5)nn(C)c34)ccc2n1 [Example 63, 6-(1,6-dimethyl-3-((3-(trifluoromethyl)phenyl)amino)-1H-indazol-7-yl)-N-methyl-2-quinazolinamine]"
≤ 500,≤ 250,,"CNc1ncc2cc(-c3c(C)ccc4c(Nc5ccc(OC)c(C(F)(F)F)c5)nn(C)c34)ccc2n1 [Example 64, 6-(1,6-dimethyl-3-((4-(methyloxy)-3-(trifluoromethyl)phenyl)amino)-1H-indazol-7-yl)-N-methyl-2-quinazolinamine]"
≤ 500,≤ 250,,"CNc1ncc2cc(-c3c(C)ccc4c(Nc5cccc(OC(F)(F)F)c5)nn(C)c34)ccc2n1 [Example 65, 6-(1,6-dimethyl-3-((3-((trifluoromethyl)oxy)phenyl)amino)-1H-indazol-7-yl)-N-methyl-2-quinazolinamine]"
≤ 500,≤ 250,,"CNc1cc(-c2cccnc2Nc2c(C)ccc3c(Nc4cccc(OC(F)(F)F)c4)nccc23)ncn1 [Example 68, 6-methyl-N^5-(3-(6-(methylamino)-4-pyrimidinyl)-2-pyridinyl)-N^1-(3-((trifluoromethyl)oxy)phenyl)-1,5-isoquinolinediamine]"
≤ 500,≤ 500,,"CNc1cc(-c2cccnc2Nc2c(C)ccc3c(Nc4ccc(OC)c(C(F)(F)F)c4)nccc23)ncn1 [Example 70, N^1-(4-methoxy-3-(trifluoromethyl)phenyl)-6-methyl-N^5-(3-(6-(methylamino)pyrimidin-4-yl)pyridin-2-yl)isoquinoline-1,5-diamine]"
≤ 500,≤ 1000,,"CNc1cc(-c2cccnc2Nc2c(C)ccc3c(Nc4ccc5c(c4)NCCC5(C)C)nccc23)ncn1 [Example 72, N^1-(4,4-dimethyl-1,2,3,4-tetrahydro-7-quinolinyl)-6-methyl-N^5-(3-(6-(methylamino)-4-pyrimidinyl)-2-pyridinyl)-1,5-isoquinolinediamine]"
≤ 500,≤ 250,,"CNc1ncc2cc(-c3c(C)ccc4c(Nc5cccc(OC(C)C)c5)n[nH]c34)ccc2n1 [Example 78, N-methyl-6-(6-methyl-3-((3-((1-methylethyl)oxy)phenyl)amino)-1H-indazol-7-yl)-2-quinazolinamine]"
≤ 500,≤ 250,,"CNc1ncc2cc(-c3c(C)ccc4c(Nc5ccc6c(c5)NCC6(C)C)nccc34)ccc2n1 [Example 79, 6-(1-((3,3-dimethyl-2,3-dihydro-1H-indol-6-yl)amino)-6-methyl-5-isoquinolinyl)-N-methyl-2-quinazolinamine]"
≤ 500,≤ 250,,"Cc1ccc2c(Nc3ccc4c(c3)NCC4(C)C)nccc2c1Nc1ncccc1-c1ccncn1 [Example 80, N^1-(3,3-dimethyl-2,3-dihydro-1H-indol-6-yl)-6-methyl-N^5-(3-(4-pyrimidinyl)-2-pyridinyl)-1,5-isoquinolinediamine]"
≤ 500,≤ 250,,"CNc1ncc2cc(-c3c(C)ccc4c(Nc5ccc6c(c5)NCC6(C)C)ncnc34)ccc2n1 [Example 81, N^4′-(3,3-dimethyl-2,3-dihydro-1H-indol-6-yl)-N^2,7′-dimethyl-6,8′-biquinazoline-2,4′-diamine]"
≤ 500,≤ 250,≤ 1000,CNc1ncc2cc(-c3c(C)ccc4c(Nc5ccc(C)c(F)c5)nn(C)c34)ccc2n1 [Example 198]
≤ 500,≤ 250,≤ 1000,CNc1ncc2cc(-c3c(C)ccc4c(Nc5ccc(-n6ccnc6)cc5)nn(C)c34)ccc2n1 [Example 204]
,≤ 250,≤ 5000,"CNc1cc(-c2cccnc2Nc2c(C)ccc3c(Nc4cccc(C(F)(F)F)c4)ncnc23)ncn1 [Example 337, 7-methyl-N8-(3-(6-(methylamino)pyrimidin-4-yl)pyridin-2-yl)-N4-(3-(trifluoromethyl)phenyl)quinazoline-4,8-diamine]"
≤ 500,≤ 250,,CNc1cc(-c2cccnc2Nc2c(C)ccc3c(Nc4cccc(OC(F)(F)F)c4)ncnc23)ncn1 [Example 343]
,≤ 500,≤ 5000,Cc1ccc(C(F)(F)F)cc1Nc1nccc2c(Nc3ncccc3-c3ncnc4[nH]ccc34)c(C)ccc12 [Example 346]
,≤ 250,≤ 5000,CNc1cc(-c2cccnc2Nc2c(C)ccc3c(Nc4ccc(Cl)c(C)c4)nccc23)ncn1 [Example 352]
≤ 500,≤ 250,,"CNc1ncc2cc(-c3c(C)sc4c(Nc5ccc(OC)c(C(F)(F)F)c5)nccc34)ccc2n1 [Example 392, 6-(7-(4-methoxy-3-(trifluoromethyl)phenylamino)-2-methylthieno[2,3-c]pyridin-3-yl)-N-methylquinazolin-2-amine]"
,≤ 250,≤ 5000,"CNc1ncc2cc(-c3c(C)sc4c(Nc5cccc(C(F)(F)F)c5)nccc34)ccc2n1 [Example 393, N-methyl-6-(2-methyl-7-(3-(trifluoromethyl)phenylamino)thieno[2,3-c]pyridin-3-yl)quinazolin-2-amine]"
≤ 500,≤ 250,,"CNc1ncc2cc(-c3c(C)ccc4c(Oc5cccc(C(F)(F)F)c5)nccc34)ccc2n1 [Example 395, N-methyl-6-(6-methyl-1-(3-(trifluoromethyl)phenoxy)isoquinolin-5-yl)quinazolin-2-amine]"
≤ 500,≤ 250,,"CNc1ncc2cc(-c3c(C)ccc4c(Nc5cccc(C(F)(F)F)c5)nsc34)ccc2n1 [Example 398, N-methyl-6-(6-methyl-3-(3-(trifluoromethyl)phenylamino)benzo[d]isothiazol-7-yl)quinazolin-2-amine]"
